16 molecules from US20250145665A1, “MACROCYCLIC PEPTIDES USEFUL AS MODULATORS OF TNF ALPHA” (Bristol-Myers Squibb Company, priority 2023, published 2025) can be followed below.

Positions of bridges follow the written chain, without caps; N, C: chain ends. Non-standard residues stand in square brackets, D forms with d. Residues, ends and D or L forms follow the SMILES beside them. Bip(4'-COOH) = N[C@@H](Cc1ccc(-c2ccc(C(=O)O)cc2)cc1)C(=O)O; Phe(4-CF3) = N[C@@H](Cc1ccc(C(F)(F)F)cc1)C(=O)O; Ala(morpholin-4-yl) = N[C@@H](CN1CCOCC1)C(=O)O; Phe(3-CONH2) = NC(=O)c1cccc(C[C@H](N)C(=O)O)c1; Phe(4-CONH2) = NC(=O)c1ccc(C[C@H](N)C(=O)O)cc1; Phe(4-CH2NH2) = NCc1ccc(C[C@H](N)C(=O)O)cc1; Bip = N[C@@H](Cc1ccc(-c2ccccc2)cc1)C(=O)O; Morpholine(3S-CO) = O=C(O)[C@@H]1COCCN1; Phe(4-Me) = Cc1ccc(C[C@H](N)C(=O)O)cc1; Val(3-OH) = CC(C)(O)[C@H](N)C(=O)O; h4Pal = N[C@@H](CCc1ccncc1)C(=O)O; hPhe = N[C@@H](CCc1ccccc1)C(=O)O; 2Pal = N[C@@H](Cc1ccccn1)C(=O)O; Tic = O=C(O)[C@@H]1Cc2ccccc2CN1; Aze = O=C(O)[C@@H]1CCN1; Sar = CNCC(=O)O

The term IC50 denotes the concentration needed to halve the response being measured.

Chain of TNFα (P01375 77-233 limits assumed): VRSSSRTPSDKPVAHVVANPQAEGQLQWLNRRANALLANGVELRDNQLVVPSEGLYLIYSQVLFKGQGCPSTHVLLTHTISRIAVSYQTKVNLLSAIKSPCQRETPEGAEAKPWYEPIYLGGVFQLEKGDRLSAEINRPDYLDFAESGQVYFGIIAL

The first test addresses TNFα (Homo sapiens, UniProt P01375). In words: TNF-Induced HEK-Blue Assay.
Settings: not given
The format is cell-based.
`CC(C)C[C@@H]1NC(=O)[C@H](Cc2ccc(O)cc2)NC(=O)[C@H](C(C)C)NC(=O)CN(C)C(=O)[C@H](C(C)C)NC(=O)[C@H](CCCNC(=N)N)NC(=O)[C@H](CC(=O)O)NC(=O)[C@@H]2CCCN2C(=O)CN(C)C(=O)[C@H](Cc2ccc(-c3ccccc3)cc2)NC(=O)[C@H](Cc2ccc(-c3ccccc3)cc2)NC(=O)[C@H](CC(N)=O)NC(=O)CSC[C@@H](C(=O)NCC(N)=O)NC1=O` [Example 142] ({CH2CO}-N[Bip][Bip][Sar]PDRV[Sar]VYLCG-NH2; thioether N-13) returned a 50% inhibitory concentration (IC50) of 200 to 2000 nM.

The same test, now with this note: HEK-Blue-CD40L cells, NF-kB-driven secreted alkaline phosphatase reporter; TNFα 0.5 ng/ml; 18 h; read-out: TNF induced HEK-Blue assay IC50 value.
For `CC(C)C[C@@H]1NC(=O)[C@H](Cc2ccc(O)cc2)NC(=O)[C@H](C(C)C)NC(=O)CN(C)C(=O)[C@H](C(C)C)NC(=O)[C@H](CCCNC(=N)N)NC(=O)[C@H](CC(=O)O)NC(=O)[C@@H]2CCCN2C(=O)CN(C)C(=O)[C@H](Cc2ccc(-c3ccccc3)cc2)NC(=O)[C@H](Cc2ccc(-c3ccccc3)cc2)NC(=O)[C@H](C(C)(C)O)NC(=O)CSC[C@@H](C(=O)NCC(N)=O)NC1=O` [Example 141] ({CH2CO}-[Val(3-OH)][Bip][Bip][Sar]PDRV[Sar]VYLCG-NH2; thioether N-13), the concentration for half-maximal inhibition (IC50) fell in the range of 50 to 200 nM.
Regarding `CC(C)C[C@@H]1NC(=O)[C@H](Cc2ccc(O)cc2)NC(=O)[C@H](C(C)C)NC(=O)[C@@H]2COCCN2C(=O)[C@H](C(C)C)NC(=O)[C@@H](CCCNC(=N)N)NC(=O)[C@H](CC(=O)O)NC(=O)[C@H](Cc2ccc(O)cc2)NC(=O)CN(C)C(=O)[C@H](Cc2ccc(-c3ccccc3)cc2)NC(=O)[C@H](Cc2ccc(-c3ccccc3)cc2)NC(=O)[C@H](CN2CCOCC2)NC(=O)CSC[C@@H](C(=O)NCC(N)=O)NC1=O` [Example 143] ({CH2CO}-[Ala(morpholin-4-yl)][Bip][Bip][Sar]YD[dR]V[Morpholine(3S-CO)]VYLCG-NH2; thioether N-13), the IC50 is < 50 nM.
Take `CC(C)C[C@@H]1NC(=O)[C@H](Cc2ccc(O)cc2)NC(=O)[C@H](C(C)C)NC(=O)[C@@H]2CCCN2C(=O)[C@H](C(C)C)NC(=O)[C@@H](CCCNC(=N)N)NC(=O)[C@H](CC(=O)O)NC(=O)[C@H](Cc2ccccn2)NC(=O)CN(C)C(=O)[C@H](Cc2ccc(-c3ccccc3)cc2)NC(=O)[C@H](Cc2ccc(-c3ccccc3)cc2)NC(=O)[C@H](CN2CCOCC2)NC(=O)CSC[C@@H](C(=O)NCC(N)=O)NC1=O` [Example 144] ({CH2CO}-[Ala(morpholin-4-yl)][Bip][Bip][Sar][2Pal]D[dR]VPVYLCG-NH2; thioether N-13): the concentration for half-maximal inhibition (IC50) was < 50 nM.
With `CC(C)C[C@@H]1NC(=O)[C@H](Cc2ccc(O)cc2)NC(=O)[C@H](C(C)C)NC(=O)[C@@H]2CCN2C(=O)[C@H](CC(N)=O)NC(=O)[C@@H](CCCNC(=N)N)NC(=O)[C@H](CC(=O)O)NC(=O)[C@H](Cc2ccc(O)cc2)NC(=O)CN(C)C(=O)[C@H](Cc2ccc(-c3ccccc3)cc2)NC(=O)[C@H](Cc2ccc(-c3ccc(C(=O)O)cc3)cc2)NC(=O)[C@H](CN2CCOCC2)NC(=O)CSC[C@@H](C(=O)NCC(N)=O)NC1=O` [Example 145] ({CH2CO}-[Ala(morpholin-4-yl)][Bip(4'-COOH)][Bip][Sar]YD[dR]N[Aze]VYLCG-NH2; thioether N-13), the concentration for half-maximal inhibition (IC50) is < 50 nM.
On to `CC(C)C[C@@H]1NC(=O)[C@H](Cc2ccc(O)cc2)NC(=O)[C@H](C(C)C)NC(=O)[C@@H]2Cc3ccccc3CN2C(=O)[C@H](CC(N)=O)NC(=O)[C@@H](CCCNC(=N)N)NC(=O)[C@H](CC(=O)O)NC(=O)[C@H](Cc2ccc(O)cc2)NC(=O)CN(C)C(=O)[C@H](Cc2ccc(-c3ccccc3)cc2)NC(=O)[C@H](Cc2ccc(-c3ccc(C(=O)O)cc3)cc2)NC(=O)[C@H](CN2CCOCC2)NC(=O)CSC[C@@H](C(=O)NCC(N)=O)NC1=O` [Example 146] ({CH2CO}-[Ala(morpholin-4-yl)][Bip(4'-COOH)][Bip][Sar]YD[dR]N[Tic]VYLCG-NH2; thioether N-13), for which the IC50 is < 50 nM.
As for `CC(C)C[C@@H]1NC(=O)[C@H](Cc2ccc(O)cc2)NC(=O)[C@H](C(C)C)NC(=O)[C@@H]2CCN2C(=O)[C@H](C(C)C)NC(=O)[C@@H](CCCNC(=N)N)NC(=O)[C@H](CC(=O)O)NC(=O)[C@H](Cc2ccc(O)cc2)NC(=O)CN(C)C(=O)[C@H](Cc2ccc(-c3ccccc3)cc2)NC(=O)[C@H](Cc2ccc(-c3ccc(C(=O)O)cc3)cc2)NC(=O)[C@H](CN2CCOCC2)NC(=O)CSC[C@@H](C(=O)NCC(N)=O)NC1=O` [Example 147] ({CH2CO}-[Ala(morpholin-4-yl)][Bip(4'-COOH)][Bip][Sar]YD[dR]V[Aze]VYLCG-NH2; thioether N-13), the concentration for half-maximal inhibition (IC50) is < 50 nM.
As to `CC(C)C[C@@H]1NC(=O)[C@H](Cc2ccc(O)cc2)NC(=O)[C@H](C(C)C)NC(=O)[C@@H]2Cc3ccccc3CN2C(=O)[C@H](C(C)C)NC(=O)[C@@H](CCCNC(=N)N)NC(=O)[C@H](CC(=O)O)NC(=O)[C@H](Cc2ccc(O)cc2)NC(=O)CN(C)C(=O)[C@H](Cc2ccc(-c3ccccc3)cc2)NC(=O)[C@H](Cc2ccc(-c3ccc(C(=O)O)cc3)cc2)NC(=O)[C@H](CN2CCOCC2)NC(=O)CSC[C@@H](C(=O)NCC(N)=O)NC1=O` [Example 148] ({CH2CO}-[Ala(morpholin-4-yl)][Bip(4'-COOH)][Bip][Sar]YD[dR]V[Tic]VYLCG-NH2; thioether N-13), the half-inhibitory concentration (IC50) was < 50 nM.
Same read-out and setting: then `CC(C)C[C@@H]1NC(=O)[C@H](Cc2ccc(O)cc2)NC(=O)[C@H](CC(C)C)NC(=O)[C@@H]2CCCN2C(=O)[C@H](C(C)C)NC(=O)[C@@H](CCCNC(=N)N)NC(=O)[C@H](CC(=O)O)NC(=O)[C@H](Cc2ccc(O)cc2)NC(=O)CN(C)C(=O)[C@H](Cc2ccc(-c3ccccc3)cc2)NC(=O)[C@H](Cc2ccc(-c3ccccc3)cc2)NC(=O)[C@H](CN2CCOCC2)NC(=O)CSC[C@@H](C(=O)NCC(N)=O)NC1=O` [Example 149] ({CH2CO}-[Ala(morpholin-4-yl)][Bip][Bip][Sar]YD[dR]VPLYLCG-NH2; thioether N-13), with 50 to 200 nM; and `CC(C)C[C@@H]1NC(=O)[C@H](Cc2ccc(CN)cc2)NC(=O)[C@H](C(C)C)NC(=O)[C@@H]2CCCN2C(=O)[C@H](C(C)C)NC(=O)[C@@H](CCCNC(=N)N)NC(=O)[C@H](CC(=O)O)NC(=O)[C@H](Cc2ccc(O)cc2)NC(=O)CN(C)C(=O)[C@H](Cc2ccc(-c3ccccc3)cc2)NC(=O)[C@H](Cc2ccc(-c3ccccc3)cc2)NC(=O)[C@H](CN2CCOCC2)NC(=O)CSC[C@@H](C(=O)NCC(N)=O)NC1=O` [Example 150] ({CH2CO}-[Ala(morpholin-4-yl)][Bip][Bip][Sar]YD[dR]VPV[Phe(4-CH2NH2)]LCG-NH2; thioether N-13), with 50 to 200 nM.
The same measure, in the same setting: then `CC(C)C[C@@H]1NC(=O)[C@H](Cc2ccc(C(N)=O)cc2)NC(=O)[C@H](C(C)C)NC(=O)[C@@H]2CCCN2C(=O)[C@H](C(C)C)NC(=O)[C@@H](CCCNC(=N)N)NC(=O)[C@H](CC(=O)O)NC(=O)[C@H](Cc2ccc(O)cc2)NC(=O)CN(C)C(=O)[C@H](Cc2ccc(-c3ccccc3)cc2)NC(=O)[C@H](Cc2ccc(-c3ccccc3)cc2)NC(=O)[C@H](CN2CCOCC2)NC(=O)CSC[C@@H](C(=O)NCC(N)=O)NC1=O` [Example 151] ({CH2CO}-[Ala(morpholin-4-yl)][Bip][Bip][Sar]YD[dR]VPV[Phe(4-CONH2)]LCG-NH2; thioether N-13), with 50 to 200 nM; and `Cc1ccc(C[C@@H]2NC(=O)[C@H](C(C)C)NC(=O)[C@@H]3CCCN3C(=O)[C@H](C(C)C)NC(=O)[C@@H](CCCNC(=N)N)NC(=O)[C@H](CC(=O)O)NC(=O)[C@H](Cc3ccc(O)cc3)NC(=O)CN(C)C(=O)[C@H](Cc3ccc(-c4ccccc4)cc3)NC(=O)[C@H](Cc3ccc(-c4ccccc4)cc3)NC(=O)[C@H](CN3CCOCC3)NC(=O)CSC[C@@H](C(=O)NCC(N)=O)NC(=O)[C@H](CC(C)C)NC2=O)cc1` [Example 152] ({CH2CO}-[Ala(morpholin-4-yl)][Bip][Bip][Sar]YD[dR]VPV[Phe(4-Me)]LCG-NH2; thioether N-13), with 50 to 200 nM; and `CC(C)C[C@@H]1NC(=O)[C@H](CCc2ccccc2)NC(=O)[C@H](C(C)C)NC(=O)[C@@H]2CCCN2C(=O)[C@H](C(C)C)NC(=O)[C@@H](CCCNC(=N)N)NC(=O)[C@H](CC(=O)O)NC(=O)[C@H](Cc2ccc(O)cc2)NC(=O)CN(C)C(=O)[C@H](Cc2ccc(-c3ccccc3)cc2)NC(=O)[C@H](Cc2ccc(-c3ccccc3)cc2)NC(=O)[C@H](CN2CCOCC2)NC(=O)CSC[C@@H](C(=O)NCC(N)=O)NC1=O` [Example 154] ({CH2CO}-[Ala(morpholin-4-yl)][Bip][Bip][Sar]YD[dR]VPV[hPhe]LCG-NH2; thioether N-13), with 50 to 200 nM.
`CC(C)C[C@@H]1NC(=O)[C@H](CCc2ccncc2)NC(=O)[C@H](C(C)C)NC(=O)[C@@H]2CCCN2C(=O)[C@H](C(C)C)NC(=O)[C@@H](CCCNC(=N)N)NC(=O)[C@H](CC(=O)O)NC(=O)[C@H](Cc2ccc(O)cc2)NC(=O)CN(C)C(=O)[C@H](Cc2ccc(-c3ccccc3)cc2)NC(=O)[C@H](Cc2ccc(-c3ccccc3)cc2)NC(=O)[C@H](CN2CCOCC2)NC(=O)CSC[C@@H](C(=O)NCC(N)=O)NC1=O` [Example 155] ({CH2CO}-[Ala(morpholin-4-yl)][Bip][Bip][Sar]YD[dR]VPV[h4Pal]LCG-NH2; thioether N-13): the IC50 is < 50 nM.
As to `CC(C)C[C@@H]1NC(=O)[C@H](Cc2cccc(C(N)=O)c2)NC(=O)[C@H](C(C)C)NC(=O)[C@@H]2CCCN2C(=O)[C@H](C(C)C)NC(=O)[C@@H](CCCNC(=N)N)NC(=O)[C@H](CC(=O)O)NC(=O)[C@H](Cc2ccc(O)cc2)NC(=O)CN(C)C(=O)[C@H](Cc2ccc(-c3ccccc3)cc2)NC(=O)[C@H](Cc2ccc(-c3ccccc3)cc2)NC(=O)[C@H](CN2CCOCC2)NC(=O)CSC[C@@H](C(=O)NCC(N)=O)NC1=O` [Example 156] ({CH2CO}-[Ala(morpholin-4-yl)][Bip][Bip][Sar]YD[dR]VPV[Phe(3-CONH2)]LCG-NH2; thioether N-13), the IC50 lay in the range of 50 to 200 nM.
With `CC(C)C[C@@H]1NC(=O)[C@H](Cc2ccc(C(F)(F)F)cc2)NC(=O)[C@H](C(C)C)NC(=O)[C@@H]2CCCN2C(=O)[C@H](C(C)C)NC(=O)[C@@H](CCCNC(=N)N)NC(=O)[C@H](CC(=O)O)NC(=O)[C@H](Cc2ccc(O)cc2)NC(=O)CN(C)C(=O)[C@H](Cc2ccc(-c3ccccc3)cc2)NC(=O)[C@H](Cc2ccc(-c3ccccc3)cc2)NC(=O)[C@H](CN2CCOCC2)NC(=O)CSC[C@@H](C(=O)NCC(N)=O)NC1=O` [Example 157] ({CH2CO}-[Ala(morpholin-4-yl)][Bip][Bip][Sar]YD[dR]VPV[Phe(4-CF3)]LCG-NH2; thioether N-13), the half-maximal inhibitory concentration (IC50) fell in the range of 200 to 2000 nM.
